One data set concerns mouse spleen lymphocytes. The experiment in a line: Cytotoxicity against mouse spleen lymphocytes. To be noted: estimated ±50%.
Data set [1] has as its system P. falciparum D6 (CQS) strain. The experiment in a line: Activity against CQ-sensitive P. falciparum D6 in red cell culture. It counts as cell-based, Plasmodium falciparum.
A further data set concerns parasitemia. To be noted: mouse model, oral dosing; cited from earlier work.
For data set [2], the system named is P. falciparum D6 (CQS) strain. To be noted: read-out: IC50 against the D6 strain; reported value; cited from earlier work.

The source of these data is PMC2929814 (Journal of medicinal chemistry, 2010).

pIC50: −log10 of the molar value. Like-named read-outs stand apart in the source and are kept apart here.

Consider `CCN(CC)CCCC(C)Nc1ccnc2cc(Cl)ccc12` (stereo not shown) [CQ, chloroquine, reference compound], for which the Cytotoxicity with mouse spleen lymphocytes is 12 µM. For the same molecule, the pIC50 in data set [1] (Plasmodium falciparum, D6, read-out: IC50 D6 (CQS)) was 8.15.

In the case of `CN(CCCNc1ccnc2cc(Cl)ccc12)CCCN1c2ccccc2CCc2ccccc21` [Compound 1], the Cytotoxicity in the data set with mouse spleen lymphocytes was 0.7 µM. Moreover, the “parasitemia cleared to” value in the data set with parasitemia is < 1%.

For the molecule `Clc1ccc2c(NCCCNCCCCN(Cc3ccccc3)Cc3ccccc3)ccnc2c1` [Compound 5], the Cytotoxicity with mouse spleen lymphocytes is 1.3 µM.

For the molecule `Clc1ccc2c(NCCN(CCN(Cc3ccccc3)Cc3ccccc3)CCN(Cc3ccccc3)Cc3ccccc3)ccnc2c1` [Compound 7], the Cytotoxicity in the data set with mouse spleen lymphocytes was 6.2 µM.

For `O=C(CNCCNc1ccnc2cc(Cl)ccc12)N(c1ccccc1)c1ccccc1` [Compound 10], the Cytotoxicity with mouse spleen lymphocytes is 62 µM. Further, the “therapeutic index (cytotoxicity/efficacy) for D6” value in data set [1] (cytotoxicity / IC50 D6) is 12,000.

As for `Clc1ccc2c(N3CCN(CCN(Cc4ccccc4)Cc4ccccc4)CC3)ccnc2c1` [Compound 11], in the data set on mouse spleen lymphocytes, the Cytotoxicity is 61 µM.

With `Clc1ccc2c(N3CCN(CCCN4CCN(c5ccnc6cc(Cl)ccc56)CC4)CC3)ccnc2c1` [piperaquine, 1,3-bis-[4-(7-chloroquinolyl-4)-piperazinyl-1]-propane], in data set [2], the pIC50 is > 8.00.

What is called pIC50 is −log10 of the IC50, conventionally taken in molar units.
